Experimental data published in publication PMC5654082 (Malaria Journal, 2017).
pIC50: −log10 of the molar value. Like-named read-outs stand apart in the source and are kept apart here. Marks after values point to notes of the source that are not given here.

Legend:
[1] = tested on: OCT2; design: method as in PMID 21599003; conditions: 20 µM; ASP as substrate; cited from earlier work
[2] = tested on: OCT1; design: method as in PMID 18788725; conditions: 100 µM; ASP as substrate; cited from earlier work
[3] = Maximum plasma concentration from in vivo pharmacokinetic studies after therapeutic dosing; conditions: human, the literature Cmax (ng/mL) of Table 2 expressed in µM
Excerpt: As Cmax the (geometric) mean or median maximum plasma concentrations obtained from previous in vivo pharmacokinetic studies after therapeutic dosing was used.

[4] = Thai patients with falciparum malaria; cited from earlier work
[5] = tested on: OCT2; design: method as in PMID 16263091; conditions: stably transfected HEK293 cells; read-out: IC50 of [3H]MPP+ uptake, OCT2; cited from earlier work
[6] = tested on: OCT1; design: method as in PMID 16263091; conditions: stably transfected HEK293 cells; read-out: IC50 of [3H]MPP+ uptake, OCT1; cited from earlier work
[7] = adult patients with uncomplicated falciparum malaria; (geometric) mean or median; cited from earlier work

## C=C[C@H]1C[N@@]2CC[C@H]1C[C@H]2[C@H](O)c1ccnc2ccc(OC)cc12 [Quinine, quinine]
[1]
  Inhibition of OCT2: 72%
[2]
  Inhibition of OCT1: 60%
[3]
  Cmax: 35 µM
[4]
  Unbound fraction: 0.11^g [36]
[5]
  pIC50: 4.64
[6]
  pIC50: 4.89
[7]
  Cmax: 11430^f [50] ng/mL
